The test system of data set [1] is about 90 kDa FLNA polypeptide fragment. The data set is described as follows: Phase 2a trial, about 90 kDa FLNA polypeptide fragment in plasma. It counts as in vivo, human. The settings on record: group of 13 patients, P<0.01. How it is done: FIG. 13 is a graph showing the amounts in arbitrary units of the about 90 kDa FLNA polypeptide fragment found in the plasma of 13 AD patients in a Phase 2a clinical trial who were treated with a medicament twice daily for 28 days and had their blood plasma assayed on days 0, 14 and 28 for the presence and amount of the about 90 kDa FLNA polypeptide fragment.
(§1) Briefly, the study included 13 mild-to-moderate Alzheimer's disease patients, age 50-85, Mini Mental State Exam≥16 and ≤24 with a cerebrospinal fluid total tau/Aβ42 ratio […]. A pharmaceutical composition containing 100 mg of simufilam (PTI-125) in an orally administered tablet were given to the patients twice daily for 28 consecutive days. The study was conducted at five sites in the U.S. under an Investigational New Drug (IND) application.
An assay for the presence and amount of the about 90 kDa FLNA polypeptide fragment in the plasma of each patient was also separately determined on days 0, 14 and 28 of the trial. […] Those results are shown graphically in FIG. 13 and indicate that the treatment appeared to be effective and was in agreement with the more standard assays.

For data set [2], the target named is FLNA association with toll-like receptor 4 (TLR4) (Homo sapiens, UniProt P21333). The following applies: Wang et al., J. Neurosci. 2012; cited from earlier work.
The nature of data set [3]: Phase 2a trial, plasma pharmacokinetics. It is filed as in vivo, human. On the procedure:
as §1

Another data set deals with cytokine release. The settings on record: Wang et al., J. Neurosci. 2012; cited from earlier work.
The subject of another data set is Aβ42 complexes with CD14. The experiment in a line: Phase 2a trial, Aβ42 complexes with CD14. It counts as in vivo, human. The settings on record: after 28 days of treatment. How it is done:
as §1
(§2) Biomarker reductions were at least p 0.001 by paired “t” test. Target engagement was shown in lymphocytes by a shift in filamin A's conformation from aberrant to native: 93% was aberrant on Day 1 vs. 40% on Day 28.

Data set [4] concerns the target T1, filamin A linkages with toll-like receptor 4 (Homo sapiens, UniProt P21333).
T1 construct: filamin A linkages with α7-nicotinic acetylcholine receptor and toll-like receptor 4; endogenous in cells; host or cells: patients' lymphocytes
The data set is described as follows: Phase 2a trial, filamin A linkage with toll-like receptor 4. It counts as in vivo. The settings on record: after 28 days of treatment. How it is done: as §1, §2

Data set [5] concerns Aβ42 complexes with α7-nicotinic acetylcholine receptor. The data set is described as follows: Phase 2a trial, Aβ42 complexes with α7-nicotinic acetylcholine receptor. It counts as in vivo, human. The settings on record: after 28 days of treatment. How it is done: as §1, §2
The subject of data set [6] is cerebrospinal fluid biomarkers of Alzheimer's disease pathology, neurodegeneration and neuroinflammation. The data set is described as follows: Phase 2a clinical trial, cerebrospinal fluid and plasma biomarkers. It is filed as in vivo, human.
From the text: A small Phase 2a clinical trial that utilized a contemplated prognostic method along with other methodologies was first reported in the fall of 2019. The results of that trial were thereafter reported at Clinical Trials on Alzheimer's Disease (CTAD), December 4-7th, 2019 in San Diego, CA, and were published as Wang et al., J Prev Alzheimers Dis published 7 Feb. 2020. The use of the assay disclosed herein was neither shown nor discussed in that article.
as §1
Consistent with the drug's mechanism of action and preclinical data, the simufilam (PTI-125) reduced cerebrospinal fluid biomarkers of Alzheimer's disease pathology, neurodegeneration and neuroinflammation from baseline to Day 28.
Total tau, neurogranin, and neurofilament light chain decreased by 20%, 32% and 22%, respectively. Phospho-tau (pT181) decreased 34%, evidence that the compound suppresses tau hyperphosphorylation induced by Aβ42's signaling through α7-nicotinic acetylcholine receptor. Cerebrospinal fluid biomarkers of neuroinflammation (YKL-40 and inflammatory cytokines) decreased by 5-14%. Biomarker effects were similar in plasma.
This increase is consistent with the compound's 1,000-fold reduction of Aβ42's femtomolar binding affinity to α7-nicotinic acetylcholine receptor.

Data set [7] has as its target T2, filamin A linkages with α7-nicotinic acetylcholine receptor (Homo sapiens, UniProt P21333).
T2 construct: filamin A linkages with α7-nicotinic acetylcholine receptor and toll-like receptor 4; endogenous in cells; host or cells: patients' lymphocytes
The experiment in a line: Phase 2a trial, filamin A linkage with α7-nicotinic acetylcholine receptor. It is filed as in vivo. The settings on record: after 28 days of treatment. How it is done: as §1, §2

The target in another data set is T3, filamin A (Homo sapiens, UniProt P21333).
T3 construct: endogenous in cells; host or cells: patients' lymphocytes
T3 sequence (P21333 whole entry): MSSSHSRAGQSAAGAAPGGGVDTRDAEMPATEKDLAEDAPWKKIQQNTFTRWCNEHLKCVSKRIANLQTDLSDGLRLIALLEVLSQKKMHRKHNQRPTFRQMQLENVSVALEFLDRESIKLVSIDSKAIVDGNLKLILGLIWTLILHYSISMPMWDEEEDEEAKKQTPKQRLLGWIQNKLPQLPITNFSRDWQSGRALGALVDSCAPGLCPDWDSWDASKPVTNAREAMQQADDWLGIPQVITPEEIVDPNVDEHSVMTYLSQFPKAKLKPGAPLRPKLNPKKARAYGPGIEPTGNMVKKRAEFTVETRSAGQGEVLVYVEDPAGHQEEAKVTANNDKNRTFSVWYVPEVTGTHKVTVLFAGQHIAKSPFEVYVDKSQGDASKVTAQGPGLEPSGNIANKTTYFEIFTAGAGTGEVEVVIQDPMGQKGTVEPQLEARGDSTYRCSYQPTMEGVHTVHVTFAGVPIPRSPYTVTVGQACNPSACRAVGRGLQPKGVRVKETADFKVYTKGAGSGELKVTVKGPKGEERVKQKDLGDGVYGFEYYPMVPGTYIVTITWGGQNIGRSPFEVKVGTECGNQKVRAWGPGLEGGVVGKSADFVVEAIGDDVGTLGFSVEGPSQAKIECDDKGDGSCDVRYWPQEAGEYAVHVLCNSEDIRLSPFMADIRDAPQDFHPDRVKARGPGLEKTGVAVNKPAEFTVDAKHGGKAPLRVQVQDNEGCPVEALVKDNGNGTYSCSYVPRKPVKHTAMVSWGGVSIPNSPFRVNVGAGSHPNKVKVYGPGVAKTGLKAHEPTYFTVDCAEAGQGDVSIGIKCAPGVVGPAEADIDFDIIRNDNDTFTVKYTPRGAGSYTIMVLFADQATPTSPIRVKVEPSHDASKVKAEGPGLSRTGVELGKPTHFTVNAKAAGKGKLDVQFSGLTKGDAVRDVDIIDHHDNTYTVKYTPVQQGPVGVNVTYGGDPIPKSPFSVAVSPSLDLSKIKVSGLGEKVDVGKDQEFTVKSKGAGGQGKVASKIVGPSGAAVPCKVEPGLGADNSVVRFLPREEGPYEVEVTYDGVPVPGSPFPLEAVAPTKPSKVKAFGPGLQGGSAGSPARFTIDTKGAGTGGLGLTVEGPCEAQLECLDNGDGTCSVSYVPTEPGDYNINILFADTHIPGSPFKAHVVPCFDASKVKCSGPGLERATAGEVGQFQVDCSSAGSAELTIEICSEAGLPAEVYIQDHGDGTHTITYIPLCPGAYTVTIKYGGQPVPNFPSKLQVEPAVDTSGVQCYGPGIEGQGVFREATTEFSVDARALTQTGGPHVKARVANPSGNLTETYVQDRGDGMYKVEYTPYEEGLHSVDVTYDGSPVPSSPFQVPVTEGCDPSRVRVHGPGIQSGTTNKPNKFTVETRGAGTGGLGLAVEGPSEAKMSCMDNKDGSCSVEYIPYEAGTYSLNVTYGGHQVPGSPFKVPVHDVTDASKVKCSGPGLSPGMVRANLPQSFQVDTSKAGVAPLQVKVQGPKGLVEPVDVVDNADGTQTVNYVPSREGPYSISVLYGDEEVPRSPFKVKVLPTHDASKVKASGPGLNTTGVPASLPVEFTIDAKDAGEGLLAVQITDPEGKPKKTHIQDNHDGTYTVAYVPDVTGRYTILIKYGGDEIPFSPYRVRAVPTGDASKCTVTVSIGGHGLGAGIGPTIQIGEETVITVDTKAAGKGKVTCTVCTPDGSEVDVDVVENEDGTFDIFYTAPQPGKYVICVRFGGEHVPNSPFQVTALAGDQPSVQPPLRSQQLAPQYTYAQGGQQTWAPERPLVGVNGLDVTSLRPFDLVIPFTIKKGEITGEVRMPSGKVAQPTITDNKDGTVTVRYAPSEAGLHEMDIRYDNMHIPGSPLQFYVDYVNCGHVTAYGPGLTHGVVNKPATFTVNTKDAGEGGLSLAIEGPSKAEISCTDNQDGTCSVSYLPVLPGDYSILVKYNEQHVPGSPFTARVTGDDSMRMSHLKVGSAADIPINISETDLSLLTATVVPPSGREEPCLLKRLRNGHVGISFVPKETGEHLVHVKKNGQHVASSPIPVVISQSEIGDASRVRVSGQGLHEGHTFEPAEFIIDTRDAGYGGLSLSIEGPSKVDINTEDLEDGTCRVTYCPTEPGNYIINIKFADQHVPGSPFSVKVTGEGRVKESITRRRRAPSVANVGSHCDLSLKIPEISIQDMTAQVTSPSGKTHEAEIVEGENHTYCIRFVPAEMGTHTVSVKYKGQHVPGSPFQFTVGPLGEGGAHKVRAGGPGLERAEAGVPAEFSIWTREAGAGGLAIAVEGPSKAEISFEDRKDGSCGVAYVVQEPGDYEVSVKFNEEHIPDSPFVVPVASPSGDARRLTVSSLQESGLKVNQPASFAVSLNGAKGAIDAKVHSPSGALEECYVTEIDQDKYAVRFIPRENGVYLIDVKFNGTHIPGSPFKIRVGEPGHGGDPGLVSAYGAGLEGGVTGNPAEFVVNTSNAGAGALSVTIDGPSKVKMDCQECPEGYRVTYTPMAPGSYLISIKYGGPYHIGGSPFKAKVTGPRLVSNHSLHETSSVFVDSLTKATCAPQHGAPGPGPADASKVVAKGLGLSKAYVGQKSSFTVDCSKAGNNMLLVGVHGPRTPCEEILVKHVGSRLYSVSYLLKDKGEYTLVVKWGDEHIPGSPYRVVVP
The experiment in a line: Phase 2a trial, target engagement in lymphocytes: filamin A conformation. It counts as in vivo. On the procedure: as §1, §2

Data set [8] concerns the target α7-nicotinic acetylcholine receptor (Homo sapiens, UniProt P36544). The following applies: cited from earlier work.
Data set [9] in a line: Phase 2a trial, safety and tolerability. It counts as in vivo, human. The following applies: all patients, 100 mg twice daily for 28 days. On the procedure: as §1
In data set [10] the test system is prefrontal cortex and hippocampus brain slices. The data set is described as follows: Ex vivo organotypic brain slice culture with Aβ42 exposure. It counts as cell-based. The following applies: rat brain slices, serum-deprived, 100 μM Aβ1-42. How it is done: We hypothesize that the 90-kDa pS^2152FLNA fragment is derived from degenerated and ruptured neurons in the brain.
Using two brain regions known to be vulnerable to AD damage, 200-μm sections of prefrontal cortex and hippocampus were prepared from 10-week-old rats. These brain slices were cultured as described previously (Wang et al., above) for 4 days to permit recovery of slice preparation damage. These slices were then serum-deprived and incubated with 100 μM Aβ1-42 (Aβ42).
The presence of the 90-kDa pS^2152-FLNA fragments and pS^2152-FLNA protein, as well as other biomarkers that reflect neuronal destruction, nitrated tau (nY^29-tau) and glial damage [truncated glial fibrillary acidic protein (GFAP)] in the culture medium were assessed by Western blotting. The specificity of Aβ42 was defined by Aβ421, an intrareversal peptide.
The 90-kDa pS^2152-FLNA fragment, but not full-length (280-kDa) pS^2152-FLNA protein, appears in the medium starting at 4 hours post-Aβ42 addition and steadily increases over time. […] In addition, full-length GFAP, followed by its truncated form, appears early following Aβ1-42 exposure.

The mark [11] stands for this setting: cerebrospinal fluid, baseline to Day 28, 100 mg twice daily.

α7-nicotinic acetylcholine receptor, sequence (P36544 23-502): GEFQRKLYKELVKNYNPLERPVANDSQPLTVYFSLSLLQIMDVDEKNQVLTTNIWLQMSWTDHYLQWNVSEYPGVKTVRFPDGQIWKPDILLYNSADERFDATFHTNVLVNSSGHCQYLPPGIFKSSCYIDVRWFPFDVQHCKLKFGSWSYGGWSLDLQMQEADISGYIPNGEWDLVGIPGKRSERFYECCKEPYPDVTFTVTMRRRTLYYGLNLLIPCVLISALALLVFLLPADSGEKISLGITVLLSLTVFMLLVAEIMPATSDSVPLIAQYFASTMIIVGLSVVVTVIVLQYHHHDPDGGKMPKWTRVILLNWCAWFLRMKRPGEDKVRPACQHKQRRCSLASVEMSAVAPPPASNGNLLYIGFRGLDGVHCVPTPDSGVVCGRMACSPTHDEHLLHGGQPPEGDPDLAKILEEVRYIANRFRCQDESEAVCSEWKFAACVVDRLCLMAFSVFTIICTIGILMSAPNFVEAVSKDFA

Regarding `CN1CCC2(CC1)NCC(=O)N2Cc1ccccc1` [simufilam], in [1] (14 days into the trial), the “Amount of the 90 kDa FLNA polypeptide fragment in the plasma” value is on record as “decrease”. Also, in data set [1] (28 days into the trial), the “Amount of the 90 kDa FLNA polypeptide fragment in the plasma” value is given as “decrease”. The “FLNA association with toll-like receptor 4 (TLR4)” value in [2] is reported as “reducing”. The Drug accumulation entry in [3] (Day 28 vs. Day 1) is reported as “approximately 30%”. The half-life – broadly, the time in which the quantity being followed falls by half – in [3] (human, plasma, AD patients, 100 mg oral twice daily) is 4.5 h. The Cytokine release result with cytokine release is “preventing”. In the data set on Aβ42 complexes with CD14, the “Aβ42 complexes with CD14” value is “significantly reduced”. Moreover, the “Filamin A linkages with toll-like receptor 4” value in [4] is listed as “significantly reduced”. The “Aβ42 complexes with α7-nicotinic acetylcholine receptor” value in [5] was “significantly reduced”. Also, the Biomarker response entry in [6] (13 mild-to-moderate AD patients, 100 mg oral tablet twice daily for 28 days, baseline to Day 28) is recorded as “All patients showed a biomarker response”. Further, the Aβ42 change entry in data set [6] (baseline to Day 28, 100 mg twice daily) is listed as “increased slightly”. Further, in data set [6] (setting [11]), the “Cerebrospinal fluid biomarkers of neuroinflammation (YKL-40 and inflammatory cytokines) decrease” value is 5-14%; the “Neurofilament light chain decrease” value worked out at 22%; the Neurogranin decrease was determined as 32%; the “Phospho-tau (pT181) decrease” value turned out to be 34%. Also, the Total tau decrease in data set [6] (setting [11]) came out at 20%. In addition, the “Biomarker effects in plasma” value in [6] (plasma compared with cerebrospinal fluid) is reported as “similar”. The “Filamin A linkages with α7-nicotinic acetylcholine receptor” value in data set [7] is listed as “significantly reduced”. Further, the “Aberrant filamin A conformation” value at filamin A (Day 1) stood at 93%. Also, the “Aberrant filamin A conformation” value on filamin A (Day 28) was 40%. Moreover, in data set [8], the “Reduction of Aβ42's femtomolar binding affinity to α7-nicotinic acetylcholine receptor” value is 1,000 fold. The Safety and tolerability entry in data set [9] is “safe and well-tolerated”.
For the compound “Aβ42: amyloid-beta peptide generated by cleavage of amyloid precursor protein; used to induce AD-like damage in brain slices”, the “Time of first appearance of 90-kDa pS2152-FLNA fragment in the medium post-Aβ42 addition” value in data set [10] was determined as 4 hours.

These data come from patent US20240329056A1, “COMPONENT ASSAY FOR ALZHEIMER'S DISEASE IN A LIVING SUBJECT” (CASSAVA SCIENCES, INC., priority 2021, published 2024).
